Measured values: US10596239B2, “Peptide mixture” (TARGOVAX ASA, priority 2013, dated 2020)
Where “and” joins values, the source holds several entries; their conditions need not be identical. Identical values can stand only once.

Assays:
splenocytes = assay: Splenocyte proliferation assay (3H-thymidine) following subcutaneous vaccination of mice with TG02; assay type: cell-based, BALB/c mice; conditions: 1 μg/200 μL ConA, 5 days
Method: In this Example, mice were repeatedly vaccinated subcutaneously with TG02, in order to analyse the immune response. Following the vaccination, splenocytes were harvested, and the proliferative response of the splenocytes was measured.
The study was conducted with 3 groups, each compromising 10 female BALB/c mice. The start of the study was performed on two separate days on which 5 of the animals per group were treated. Therefore the groups were divided into part I and part II. The animals were treated subcutaneously at different time points (Table 12).
In all groups the test item was administered at repeated time points (Table 15) by subcutaneous injection between the nape of the neck and the shoulder. The application volume for all groups was 0.1 mL (0.80 mg TG02).
The spleen of all animals was removed, transferred to cell culture medium (RPMI 1640 medium supplemented with 10% FCS, 100 U/ml Penicillin, 100 μg/mL Streptomycin, 2 mM L-Glutamine, and 50 μM beta-mercaptoethanol) and stored on ice. All steps were performed sterile and cells were kept on ice.
A single cell suspension from splenic cells was generated using a cell strainer. After centrifugation (350 g, 5 min, 5±3° C.), supernatant was removed and the cell pellet was resuspended in ACK buffer and incubated for 5 min at RT. 10 mL cell culture medium was added. The samples were left 5 min on bench top to let the cell debris sediment. The suspension above the cell debris was transferred into another tube and was centrifuged (350 g, 5 min, 5±3° C.). The supernatant was removed and the cell pellet was resuspended in 10 mL cell culture medium. After counting of cells, 0.2 Mio cells were seeded in a 96 well plate (180 μL per well; 1,1 *10^6 cells/mL). 9 replicates were plated on each plate for each spleen. • (1) 1 plate for harvesting of supernatant for cytokine measurement after 24 h (results not shown) • (2) 1 plate for harvesting of supernatant for cytokine measurement after 48 h (results not shown) • (3) 1 plate for the proliferation assay
The following stimulations were performed: • 3 replicates: unstimulated (addition of 20 μL cell culture medium) • 3 replicates: stimulation with 10 μM TG02 (8 peptides, 10 μM end concentration per peptide, addition in 20 μL cell culture medium) • 3 replicates: stimulation with 1 μg/200 μL, ConA (Concanavalin A) (addition of 1 μg ConA in 2.0 μL cell culture medium)
Incubation at 37° C. and 5% CO2 for 24 h (1), […] or 5 days (3).
Proliferation Assay • (3) After 5 days, 1 μCi/well ^3H-Thymidine was added to the samples, which were then incubated for 18 h at 37° C. and 5% CO2. The plates were then frozen at ≤−20° C.
Plates were thawed at RT. After washing off the harvester, the samples were transferred to a filter plate using the harvester followed by 5 washing steps using water. Filter plates were dried at RT overnight. A foil was stuck to the bottom of the filter plates and 20 μL scintillation fluid was added to the wells. After incubation of 1 h at RT, the samples were measured using a TopCount NXT and the stimulation index (SI) was calculated. SI=CPM of stimulated samples/CPM of control samples.

T cells = assay: 3-days T cell proliferation assay (3H-thymidine) after three rounds of in vitro stimulation of PBMC bulk cultures with RAS peptides; assay type: cell-based, human; conditions: bulk cultures stimulated three rounds with TG02 + 13R, 10 μM peptide
Method: In this example, Buffy coats were collected from 4 normal human donors (Buffy 1, Buffy 2, Buffy 3, and Buffy 4) and were cultured in vitro. The in vitro PBMCs were stimulated with a single RAS peptide or a mixture of RAS peptides, and T cell proliferation assays performed.
The procedure must be performed at room temperature until point 5. All handling of cells in the open is done in a vertical laminar flow hood. • 1. Rapidly transfer the vials, each vial with frozen PBMC from a buffy coat (Buffy 1, Buffy 2, Buffy 3, and Buffy 4), to a water bath at 37° C. • 2. Shake the vials manually at regular intervals (approx. 2-3 min.) and remove them from the water bath while some ice is still present. • 3. When all the ice is melted, transfer 1 ml of CellGro DC medium drop-wise to the cell suspension. • 4. Transfer the cell suspension to a 50 ml tube containing 20 ml of CellGro DC medium. • 5. Centrifuge cells at 500 G for 5 min at room temperature. • 6. Resuspend the cells in 5 ml CellGro DC medium, • 7. Count the number of viable cells using a Bürker chamber or KOVA Galsstic slides and adjust the cell concentration to 2×10^6cells/ml in complete CellGro DC medium (see recipe). Total cell numbers: Buffy 1-45×10^6, Buffy 2-27.5×10^6, Buffy 3-40.5×10^6, and Buffy 4-40.5×10^6 cells. b. Bulk Cultures for Increasing Number of RAS Peptide Reactive T Cells • 1. […]

| Substance | Counts per minute (CPM), Splenocytes + ConA, mean (splenocytes; Mean Mouse #4, vaccinated with TG02) | Counts per minute (CPM), Splenocytes + ConA, mean (splenocytes; Mean Mouse #7, vaccinated with TG02) [CPM] | Counts per minute (CPM), Splenocytes + ConA, mean (splenocytes; Mean Mouse #24, vaccinated with TG02 + ViscoGel) [CPM] | Counts per minute (CPM), Splenocytes + ConA, mean (splenocytes; Mean Mouse #29, vaccinated with TG02 + ViscoGel) | Counts per minute (CPM), Splenocytes + ConA, replicate (splenocytes; Mouse #4, vaccinated with TG02) | Counts per minute (CPM), Splenocytes + ConA, replicate (splenocytes; Mouse #7, vaccinated with TG02) | Counts per minute (CPM), Splenocytes + ConA, replicate (splenocytes; Mouse #24, vaccinated with TG02 + ViscoGel) | Counts per minute (CPM), Splenocytes + ConA, replicate (splenocytes; Mouse #29, vaccinated with TG02 + ViscoGel) | Counts per minute (CPM), Splenocytes + ConA, mean (splenocytes; Mouse #30 (last line, mean), vaccinated with TG02 + ViscoGel) | Counts per minute (CPM), Splenocytes + ConA, replicate (splenocytes; Mouse #30, vaccinated with TG02 + ViscoGel) | Counts per minute (CPM), APC + T cell + 13C, replicate (T cells; Donor #3) | Counts per minute (CPM), APC + T cell + 13C, mean (T cells; Mean Donor #3) [CPM] |
| --- | --- | --- | --- | --- | --- | --- | --- | --- | --- | --- | --- | --- |
| Concanavalin A [ConA] | 15,210 CPM | 6158 | 8823 | 10,935 CPM | 15,113 CPM and 12,612 CPM and 17,906 CPM | 5305 CPM and 6252 CPM and 6916 CPM | 7834 CPM and 8578 CPM and 10,057 CPM | 9480 CPM and 13,292 CPM and 10,033 CPM | 36,687 CPM | 32,205 CPM and 35,668 CPM and 42,149 CPM |  |  |
| KLVVVGAGCVGKSALTI (listed as Homo sapiens) [13C] |  |  |  |  |  |  |  |  |  |  | 27813 CPM and 32522 CPM and 28869 CPM | 29735 |
